Key:
[1] = test system: Demodex; test: Clinical treatment of Demodex infestation with topical mitomycin C; assay type: in vivo, human; details: patient with conjunctival melanoma and heavy Demodex infestation, after 2 cycles
[2] = test system: Demodex; test: Clinical treatment of Demodex blepharitis with topical 5-FU 1%; assay type: in vivo, human
Description: The diagnosis of ocular demodicosis was based on clinical examination and confirmed by lash sampling and identification of microscopic mites. Lashes with cylindrical dandruff (CD), (scales that form clear cuffs collaring the lash root) were specifically selected for epilation. External slit lamp photos of both eyes of each individual were taken prior to and after initiation of 5-FU treatment. […] Patients were treated with 5-FU in a cyclical fashion (one week of topical 5-FU 1% application 4 times per day in the affected eye(s) followed by a 3-week holiday comprised one cycle).

[3] = test system: Demodex; test: Ex vivo treatment of Demodex on epilated lashes, kill time; details: lashes immersed in 1-2 drops, time to cessation of all movement for minimum 60 seconds, examined every four hours
Description: Epilated lashes from an individual with confirmed Demodex infection were mounted onto six slides and covered with a coverslip. The lashes were then immersed in 1-2 drops of treatment solution (50 mg/mL 5-FU, 5 mg/mL 5-FU, or balanced salt solution as a control (2 slides each)). The slides were examined under a microscope (at magnifications ranging from 20-40×) every four hours. The kill time was defined as the elapsed time between the addition of test solution and all cessation of movement of the body, legs, mouth and pedipalps for a minimum of 60 seconds. The kill time for Demodex-infested lashes immersed in 5 mg/mL of 5-FU, 50 mg/mL of 5-FU, and control were 32 hours, 44 hours, and 72 hours, respectively.

Structure (SMILES): CO[C@@]12[C@H](COC(N)=O)C3=C(C(=O)C(C)=C(N)C3=O)N1C[C@@H]1N[C@@H]12 [mitomycin C]
- lash collarettes [1]: dramatic reduction in lash collarettes

Structure (SMILES): O=c1[nH]cc(F)c(=O)[nH]1 [5-FU, 5-fluorouracil]
- CDs (cylindrical dandruff) and inflammation ([2]; one individual with bilateral 5-FU treatment, both eyes compared to pre-treatment): reduction in CDs and inflammation
- collarettes and lid inflammation by clinical examination ([2]; topical 5-FU 1% 4 times per day one week, 3-week holiday per cycle, at least 2 cycles, treated eyes compared to untreated eye): reduction in collarettes and lid inflammation
- kill time ([3]; 5 mg/mL 5-FU): 32 h
- kill time ([3]; 50 mg/mL 5-FU): 44 h

Reference: US20240238292A1, “TREATMENT OF INFECTIONS IN AND AROUND THE EYE” (UNIVERSITY OF MIAMI, priority 2021, published 2024)
